According to patent US20060167048A1, “N-4-piperidinyl compounds as ccr5 modulators” (priority 2002, published 2006):

Tests used:
[1] = target: recombinant human CCR5 receptor (Homo sapiens, UniProt P51681); experiment: in vitro radioligand binding assay, inhibition of binding of iodinated RANTES or MIP-1α (scintillation proximity); conditions: membranes from Chinese hamster ovary cells expressing recombinant human CCR5; 0.1 nM iodinated RANTES or MIP-1α; read-out: IC50 (concentration of compound which displaced 50% of bound iodinated RANTES or MIP-1α)
recombinant human CCR5 receptor, sequence (P51681 whole entry): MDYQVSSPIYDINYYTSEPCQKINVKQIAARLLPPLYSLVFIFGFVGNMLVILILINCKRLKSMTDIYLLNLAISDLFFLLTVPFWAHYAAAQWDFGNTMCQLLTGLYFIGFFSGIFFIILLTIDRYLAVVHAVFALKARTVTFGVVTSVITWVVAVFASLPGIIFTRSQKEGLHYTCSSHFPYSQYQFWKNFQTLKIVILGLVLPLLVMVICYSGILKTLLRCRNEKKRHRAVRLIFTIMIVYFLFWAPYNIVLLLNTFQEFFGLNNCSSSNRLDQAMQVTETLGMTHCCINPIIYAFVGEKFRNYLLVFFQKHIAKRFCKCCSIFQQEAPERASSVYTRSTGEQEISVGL
Method: The ability of compounds to inhibit the binding of RANTES or MIP-1α was assessed by an in vitro radioligand binding assay. Membranes were prepared from Chinese hamster ovary cells which expressed the recombinant human CCR5 receptor. These membranes were incubated with 0.1 nM iodinated RANTES or MP-1α, scintillation proximity beads and various concentrations of the compounds of the invention in 96-well plates. The amount of iodinated RANTES or MIP-1α bound to the receptor was determined by scintillation counting. Competition curves were obtained for compounds and the concentration of compound which displaced 50% of bound iodinated RANTES or MIP-1α was calculated (IC50).

| melting point | IC50 [1] | SMILES |
| --- | --- | --- |
| 115 to 116 °C | – | CCN(C(=O)Cc1ccc(S(C)(=O)=O)cc1)C1CCN(CC[C@H](NC(=O)OC(C)(C)C)c2ccccc2)CC1 [Compound 1 of Table II, (S)-[3-(4-{ethyl-[2-(4-methanesulfonyl-phenyl)-acetyl]-amino}-piperidin-1-yl)-1-phenyl-propyl]-carbamic acid tert-butyl ester] |
| – | 28 nM | CCN(C(=O)Cc1ccc(S(C)(=O)=O)cc1)C1CCN(CC[C@H](NC(=O)C2CCN(S(C)(=O)=O)CC2)c2ccccc2)CC1 [Compound 5 of Table I] |
| – | 110 nM | CCN(C(=O)Cc1ccc(S(C)(=O)=O)cc1)C1CCN(CC[C@H](NC(=O)OCCOC)c2ccccc2)CC1 [Compound 3 of Table II] |
| – | 39 nM | CCN(C(=O)Cc1ccc(S(C)(=O)=O)cc1)C1CCN(CC[C@H](NC(=O)C2CCN(C(C)=O)CC2)c2ccccc2)CC1 [Compound 1 of Table I, (S)-1-acetyl-piperidine-4-carboxylic acid [3-(4-{ethyl-[2-(4-methanesulfonyl-phenyl)-acetyl]-amino}-piperidin-1-yl)-1-phenyl-propyl]-amide] |
